From patent US8822146B2, “Derivatization of biomolecules by covalent coupling of non-cofactor compounds using methyltransferases” (Vilnius University, priority 2009, dated 2014) come the findings set out here.

One assay addresses M.Hhal (Haemophilus parahaemolyticus, UniProt P05102). The assay can be described thus: DNA protection assay: pUC-618 fragment modified with aldehyde in the presence of M.Hhal, then R.Hin6I cleavage. Particulars: 800 mM acetaldehyde, 50 nM M.Hhal, 100 nM pUC-618, 1 hour, room temperature. It counts as biochemical. The protocol:
A 618 bp fragment of plasmid […] (pUC-618), which contains a single target site for M.Hhal, was used as a DNA substrate. pUC-618 was prepared by PCR amplification of the pUC19 template (Fermentas Life Sciences) using Dir (5′-[…]) (SEQ ID No:11) and Rev (5′-[…]) (SEQ ID No:12) primers and Taq DNA Polymerase (Fermentas Life Sciences). The PCR fragment was purified by Sephacryl S-400 (GE Healthcare) following the precipitation by ethanol. pUC-618 contains a single target site for M.Hhal.

In a further assay the target is M.Sssl (Spiroplasma monobiae, UniProt P15840). Particulars: 13 mM formaldehyde, 500 nM M.Sssl, 100 nM pUC-618, 1 hour, room temperature.
In another assay the target is M.Hpall (Haemophilus parainfluenzae, UniProt P15446). Particulars: 13 mM formaldehyde, 1000 nM M.Hpall, 100 nM pUC-618, 1 hour, room temperature.
Chain of M.Hpall (P15446 whole entry): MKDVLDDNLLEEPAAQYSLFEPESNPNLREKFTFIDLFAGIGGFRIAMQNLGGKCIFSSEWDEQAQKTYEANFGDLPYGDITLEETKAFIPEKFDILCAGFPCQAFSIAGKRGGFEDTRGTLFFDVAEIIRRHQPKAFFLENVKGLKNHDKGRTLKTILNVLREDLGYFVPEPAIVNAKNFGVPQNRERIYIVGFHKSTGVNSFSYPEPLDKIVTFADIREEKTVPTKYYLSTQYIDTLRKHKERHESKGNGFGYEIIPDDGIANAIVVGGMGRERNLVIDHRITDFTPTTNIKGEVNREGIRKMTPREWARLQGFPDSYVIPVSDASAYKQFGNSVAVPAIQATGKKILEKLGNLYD

Chain of M.Hhal (P05102 whole entry, the tested form may be a part): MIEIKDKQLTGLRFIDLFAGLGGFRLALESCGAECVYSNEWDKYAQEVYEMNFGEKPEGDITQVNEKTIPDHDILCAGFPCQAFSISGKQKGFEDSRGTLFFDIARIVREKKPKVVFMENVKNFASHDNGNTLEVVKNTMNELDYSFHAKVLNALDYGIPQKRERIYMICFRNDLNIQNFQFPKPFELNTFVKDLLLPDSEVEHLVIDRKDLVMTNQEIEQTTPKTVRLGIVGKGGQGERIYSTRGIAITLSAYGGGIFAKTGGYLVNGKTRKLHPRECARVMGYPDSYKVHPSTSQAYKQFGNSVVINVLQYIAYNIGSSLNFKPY
Chain of M.Sssl (P15840 whole entry): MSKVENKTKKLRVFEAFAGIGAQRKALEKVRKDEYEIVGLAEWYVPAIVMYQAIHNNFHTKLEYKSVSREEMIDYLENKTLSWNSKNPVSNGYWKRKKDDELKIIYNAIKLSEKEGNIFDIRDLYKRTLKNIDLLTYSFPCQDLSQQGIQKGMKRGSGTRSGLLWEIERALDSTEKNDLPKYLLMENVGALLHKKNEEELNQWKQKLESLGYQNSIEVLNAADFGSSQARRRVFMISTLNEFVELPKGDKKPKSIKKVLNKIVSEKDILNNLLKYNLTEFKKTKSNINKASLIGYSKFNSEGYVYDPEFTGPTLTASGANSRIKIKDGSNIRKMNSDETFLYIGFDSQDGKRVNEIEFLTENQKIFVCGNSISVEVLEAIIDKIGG

`CC=O` [acetaldehyde]: at M.Hhal, the “resistance of the GCGC site to R.Hin6I cleavage” value is listed as “nearly fully”. For `C=O` [formaldehyde], the “resistance of the GCGC site to cleavage with R.Hin6I” value at M.Sssl is reported as 70%. Also, on M.Hpall, the “resistance of the CCGG sites to cleavage with R.Hpall” value was 70%.
